Reference: patent US11078184B2, “Dexrabeprazole sodium compound and pharmaceutical composition thereof” (JIANGSU AOSAIKANG PHARMACEUTICAL CO., LTD., priority 2017, dated 2021)

Key:
[1] = Determination of angle of repose (powder flowability); format: physicochemical; conditions: average of three determinations; sodium salt
Experimental: Determination of angle of repose: BT-1001 Intelligent Powder Characteristic Tester (Dandong Bettersize Instrument Co., Ltd.)
Angle of repose is a key characteristic of the frictional resistance between powder particles, and is an important parameter for characterizing the powder flowability. The angle of repose is determined by measuring the height and the base radius of a cone formed by powders, with a calculation equation as follows: tan(α)=height/radius. The angle of reposes of crystal forms A and B were measured and compared for their difference, respectively.

[2] = Determination of hygroscopic moisture; format: physicochemical; conditions: 25° C. thermostatic drier over saturated ammonium chloride solution, sodium salt
Experimental: Determination of hygroscopic moisture: 25±+1° C. Thermostatic Drier (with a saturated solution of ammonium chloride being placed at bottom of the drier).

[3] = Test of influence factors (stability: appearance and relevant materials by HPLC); format: physicochemical
Experimental: Chromatographic conditions of relevant materials: Chromatographic column: charged with octadecylsilane bonded silica as a filler (Agilent ZORBAX Extend C18, 250×4.6 mm, […]); Mobile phase A: 0.025 mol/L of phosphate solution (the pH of 0.025 mol/L of dipotassium phosphate solution was adjusted to 7.2 with phosphoric acid)-acetonitrile (95:5); Mobile phase B: methanol; Mobile phase C: acetonitrile; A linear gradient elution is carried out in accordance with the following table. Detection wavelength: 280 nm, 220 nm (for impurity H) Flowrate: 1.0 ml/min Column temperature: 25° C. Sample size: 5 μl Diluent: the pH of 0.1 mol/L of dipotassium phosphate solution was adjusted to 11.3 with 2 mol/L potassium hydroxide solution-methanol (45:55). Crystal forms A, B, and C (each 100 mg) were placed under different conditions, and sampled at Days 0, 10, 20, and 30 for detecting their characters and relevant materials, respectively.

[4] = High temperature / grinding test, change of crystal form by XRPD; format: physicochemical; conditions: sodium salt; for Stability of the crystal form at a high temperature: XRPD
Source text: Crystal forms A and C of dexrabeprazole sodium were placed under different conditions as listed in Table 5 below, and sampled for XRPD detection to investigate the change of crystal forms.

[5] = Tap density, bulk density, compression coefficient and Hausner ratio; format: physicochemical; conditions: sodium salt
Experimental: The compression coefficient and the Hausner ratio closely related thereto are simple and fast methods for predicting the powder property, and are often used as the index for characterizing the powder flowability. Crystal forms A and B were sampled for measuring the tap density and bulk density of powder of different crystal forms, and then the compression coefficient and the Hausner ratio were calculated. Wherein, the compression coefficient (%)=[(the tap density−the bulk density)/the tap density×100%; and the Hausner ratio=the tap density/the bulk density.

[6] = Test of suspension equilibrium (XRPD); conditions: suspension in acetonitrile
Experimental: XRPD test (FIGS. 10 & 12-14, Modern Analysis Center, Nanjing University): Instrument model: Thermo Co., Ltd., X'TRA Type X Diffractometer, target: Cu (40 kV, 40 mA), scanning range: 2°-40° (2θvalue), scanning step length: 0.02, scanning speed: 5
The mixture was stirred, together with 10 ml of a solvent at 35° C. and under nitrogen atmosphere, and then sampled for XRPD detection.

[7] = High humidity, RH75 ± 5%, Day 0
[8] = High humidity, RH75 ± 5%, Day 0, sodium salt
[9] = High humidity, RH75 ± 5%, Day 10, sodium salt
[10] = High humidity, RH75 ± 5%, Day 20, sodium salt
[11] = High humidity, RH75 ± 5%, Day 30, sodium salt
[12] = High temperature, 40° C., Day 0
[13] = High temperature, 40° C., Day 0, sodium salt
[14] = High temperature, 40° C., Day 10
[15] = High temperature, 40° C., Day 10, sodium salt
[16] = High temperature, 40° C., Day 20
[17] = High temperature, 40° C., Day 20, sodium salt
[18] = High temperature, 40° C., Day 30
[19] = High temperature, 40° C., Day 30, sodium salt
[20] = Light exposure, 4500 ± 500 Lx, Day 0
[21] = Light exposure, 4500 ± 500 Lx, Day 0, sodium salt
[22] = Light exposure, 4500 ± 500 Lx, Day 10
[23] = Light exposure, 4500 ± 500 Lx, Day 10, sodium salt
[24] = Light exposure, 4500 ± 500 Lx, Day 20
[25] = Light exposure, 4500 ± 500 Lx, Day 20, sodium salt
[26] = Light exposure, 4500 ± 500 Lx, Day 30
[27] = Light exposure, 4500 ± 500 Lx, Day 30, sodium salt

## COCCCOc1ccnc(C[S@@+]([O-])c2nc3ccccc3[n-]2)c1C.[Na+] [Crystal form A, R-(+)-2-{[4-(3-methoxypropoxy)-3-methylpyrid-2-yl]methylsulfinyl}-1H-benzimidazole sodium salt, reference compound]
[1]
  Determination of angle of repose, Average: Average: 58.89°
[2]; 0 h
  Hygroscopic moisture (%): 4.66%
[2]; 24 h
  Hygroscopic moisture (%): 5.10%
[2]; 48 h
  Hygroscopic moisture (%): 5.72%
[3]; [7]
  Appearance character: Off-white
[3]; [8]
  Relevant materials: Maximum individual impurity (%): 0.037%
  Relevant materials: Total impurity (%): 0.098%
[3]; High humidity, RH75 ± 5%, Day 10
  Appearance character: Yellow
[3]; [9]
  Relevant materials: Maximum individual impurity (%): 0.029%
  Relevant materials: Total impurity (%): 0.152%
[3]; High humidity, RH75 ± 5%, Day 20
  Appearance character: Yellow
[3]; [10]
  Relevant materials: Maximum individual impurity (%): 0.200%
  Relevant materials: Total impurity (%): 0.483%
[3]; High humidity, RH75 ± 5%, Day 30
  Appearance character: Yellow
[3]; [11]
  Relevant materials: Maximum individual impurity (%): 0.287%
  Relevant materials: Total impurity (%): 1.495%
[3]; [12]
  Appearance character: Off-white
[3]; [13]
  Relevant materials: Maximum individual impurity (%): 0.037%
  Relevant materials: Total impurity (%): 0.098%
[3]; [14]
  Appearance character: Off-white
[3]; [15]
  Relevant materials: Maximum individual impurity (%): 0.037%
  Relevant materials: Total impurity (%): 0.100%
[3]; [16]
  Appearance character: Off-white
[3]; [17]
  Relevant materials: Maximum individual impurity (%): 0.021%
  Relevant materials: Total impurity (%): 0.145%
[3]; [18]
  Appearance character: Off-white
[3]; [19]
  Relevant materials: Maximum individual impurity (%): 0.019%
  Relevant materials: Total impurity (%): 0.210%
[3]; [20]
  Appearance character: Off-white
[3]; [21]
  Relevant materials: Maximum individual impurity (%): 0.037%
  Relevant materials: Total impurity (%): 0.098%
[3]; [22]
  Appearance character: Off-white
[3]; [23]
  Relevant materials: Maximum individual impurity (%): 0.077%
  Relevant materials: Total impurity (%): 0.133%
[3]; [24]
  Appearance character: Off-white
[3]; [25]
  Relevant materials: Maximum individual impurity (%): 0.099%
  Relevant materials: Total impurity (%): 0.298%
[3]; [26]
  Appearance character: Off-white
[3]; [27]
  Relevant materials: Maximum individual impurity (%): 0.123%
  Relevant materials: Total impurity (%): 0.396%
[4]; grinded in a mortar for 5 min
  Comparison of XRPD fit charts (change of crystal form): partially converted to an amorphous form
[4]
  Stability of the crystal form at a high temperature: unstable at a high temperature
[5]
  Bulk density: 0.267 g · cm^−3
  Tap density: 0.450 g · cm^−3

## COCCCOc1ccnc(C[S@@+]([O-])c2nc3ccccc3[n-]2)c1C.[Na+] [Crystal form B, R-(+)-2-{[4-(3-methoxypropoxy)-3-methylpyrid-2-yl]methylsulfinyl}-1H-benzimidazole sodium salt]
[1]
  Determination of angle of repose, Average: Average: 36.35°
[2]; 0 h
  Hygroscopic moisture (%): 4.72%
[2]; 24 h
  Hygroscopic moisture (%): 5.18%
[2]; 48 h
  Hygroscopic moisture (%): 5.75%
[3]; [7]
  Appearance character: Off-white
[3]; [8]
  Relevant materials: Maximum individual impurity (%): 0.029%
  Relevant materials: Total impurity (%): 0.088%
[3]; [9]
  Appearance character: Yellow
  Relevant materials: Maximum individual impurity (%): 0.017%
  Relevant materials: Total impurity (%): 0.141%
[3]; [10]
  Appearance character: Yellow
  Relevant materials: Maximum individual impurity (%): 0.189%
  Relevant materials: Total impurity (%): 0.426%
[3]; [11]
  Appearance character: Yellow
  Relevant materials: Maximum individual impurity (%): 0.280%
  Relevant materials: Total impurity (%): 1.300%
[3]; [12]
  Appearance character: Off-white
[3]; [13]
  Relevant materials: Maximum individual impurity (%): 0.029%
  Relevant materials: Total impurity (%): 0.088%
[3]; [14]
  Appearance character: Off-white
[3]; [15]
  Relevant materials: Maximum individual impurity (%): 0.028%
  Relevant materials: Total impurity (%): 0.090%
[3]; [16]
  Appearance character: Off-white
[3]; [17]
  Relevant materials: Maximum individual impurity (%): 0.015%
  Relevant materials: Total impurity (%): 0.126%
[3]; [18]
  Appearance character: Off-white
[3]; [19]
  Relevant materials: Maximum individual impurity (%): 0.012%
  Relevant materials: Total impurity (%): 0.190%
[3]; [20]
  Appearance character: Off-white
[3]; [21]
  Relevant materials: Maximum individual impurity (%): 0.029%
  Relevant materials: Total impurity (%): 0.088%
[3]; [22]
  Appearance character: Off-white
[3]; [23]
  Relevant materials: Maximum individual impurity (%): 0.059%
  Relevant materials: Total impurity (%): 0.120%
[3]; [24]
  Appearance character: Off-white
[3]; [25]
  Relevant materials: Maximum individual impurity (%): 0.155%
  Relevant materials: Total impurity (%): 0.263%
[3]; [26]
  Appearance character: Off-white
[3]; [27]
  Relevant materials: Maximum individual impurity (%): 0.100%
  Relevant materials: Total impurity (%): 0.360%
[3]; light exposure, high temperature, and high humidity
  Stability compared with crystal form A: comparable to that of crystal form A
[5]; (tap density − bulk density)/tap density × 100%
  Compression coefficient: 22.72%
[5]
  Bulk density: 0.398 g · cm^−3
  Tap density: 0.515 g · cm^−3
[5]; tap density/bulk density
  Hausner ratio: 1.29

## COCCCOc1ccnc(C[S@@+]([O-])c2nc3ccccc3[n-]2)c1C.[Na+] [Amorphous form, R-(+)-2-{[4-(3-methoxypropoxy)-3-methylpyrid-2-yl]methylsulfinyl}-1H-benzimidazole sodium salt, reference compound]
[2]; 0 h
  Hygroscopic moisture (%): 6.60%
[2]; 24 h
  Hygroscopic moisture (%): 21.60%
[2]; 48 h
  Hygroscopic moisture (%): 21.81%

## COCCCOc1ccnc(C[S@@+]([O-])c2nc3ccccc3[n-]2)c1C.[Na+] [Crystal form C, R-(+)-2-{[4-(3-methoxypropoxy)-3-methylpyrid-2-yl]methylsulfinyl}-1H-benzimidazole sodium salt]
[6]
  Stability of the crystal form in suspension equilibrium: better stability than amorphous form and crystal form A
[2]; 0 h
  Hygroscopic moisture (%): 0.11%
[2]; 24 h
  Hygroscopic moisture (%): 0.15%
[2]; 48 h
  Hygroscopic moisture (%): 0.18%
[3]; [7]
  Appearance character: Off-white
[3]; [8]
  Relevant materials: Maximum individual impurity (%): 0.032%
  Relevant materials: Total impurity (%): 0.085%
[3]; [9]
  Appearance character: Off-white
  Relevant materials: Maximum individual impurity (%): 0.027%
  Relevant materials: Total impurity (%): 0.094%
[3]; [10]
  Appearance character: Off-white
  Relevant materials: Maximum individual impurity (%): 0.015%
  Relevant materials: Total impurity (%): 0.166%
[3]; [11]
  Appearance character: Off-white
  Relevant materials: Maximum individual impurity (%): 0.292%
  Relevant materials: Total impurity (%): 0.491%
[3]; [12]
  Appearance character: Off-white
[3]; [13]
  Relevant materials: Maximum individual impurity (%): 0.032%
  Relevant materials: Total impurity (%): 0.085%
[3]; [14]
  Appearance character: Off-white
[3]; [15]
  Relevant materials: Maximum individual impurity (%): 0.030%
  Relevant materials: Total impurity (%): 0.093%
[3]; [16]
  Appearance character: Off-white
[3]; [17]
  Relevant materials: Maximum individual impurity (%): 0.028%
  Relevant materials: Total impurity (%): 0.117%
[3]; [18]
  Appearance character: Off-white
[3]; [19]
  Relevant materials: Maximum individual impurity (%): 0.024%
  Relevant materials: Total impurity (%): 0.136%
[3]; [20]
  Appearance character: Off-white
[3]; [21]
  Relevant materials: Maximum individual impurity (%): 0.032%
  Relevant materials: Total impurity (%): 0.085%
[3]; [22]
  Appearance character: Off-white
[3]; [23]
  Relevant materials: Maximum individual impurity (%): 0.088%
  Relevant materials: Total impurity (%): 0.112%
[3]; [24]
  Appearance character: Off-white
[3]; [25]
  Relevant materials: Maximum individual impurity (%): 0.094%
  Relevant materials: Total impurity (%): 0.245%
[3]; [26]
  Appearance character: Off-white
[3]; [27]
  Relevant materials: Maximum individual impurity (%): 0.113%
  Relevant materials: Total impurity (%): 0.344%
[3]; high temperature and high humidity
  Stability compared with crystal form A: better than that of crystal form A
[3]; light exposure
  Stability compared with crystal form A: comparable to that of crystal form A
[4]
  Stability of the crystal form at a high temperature: keeps stable at a high temperature without crystal transformation
